Laboratory results taken from PMC10796410 (Cancer Chemotherapy and Pharmacology, 2023).
Where “and” joins values, the source holds several entries; their conditions need not be identical. Equal values may be shown once. Read-outs that look alike come from different tables or passages of the source.

Experiments:
[1] = Plasma pharmacokinetics of metformin in rats after a single oral dose, alone or with olaparib (HPLC-UV, non-compartmental); assay type: in vivo, Wistar rats; conditions: for Cmax / k el: po; for Cmax / k el / Cl/F / ka / t0.5: rat plasma, n = 8, mean ± SD
Description: Adult male Wistar rats (weight 380–530 g) were used in the study. The animals were maintained under standard breeding conditions with a 12/12 h light–dark cycle (lights on at 06.00, lights off at 18.00) at constant room temperature (23 ± 2 °C), relative humidity of 55 ± 10% and given ad libitum access to food and water. The animals were allowed to acclimatize for a week before the beginning of the experiments. The rats were divided into three groups. […] The solution for oral metformin administration was prepared in saline at a single dose of 100 mg/kg [15]. Drugs were orally administered to rats by gavage between 7:00 a.m. and 8:00 a.m. Before administration (0 h) and at different time intervals after the administration, i.e., 0.085, 0.5, 1, 2, 4, 6, 8, 10, and 24 h [16], blood was collected from the tail vein of each rat into 1.5-ml heparinized Eppendorf (EP) tubes. The blood samples were centrifuged at 5000 rpm for 10 min, and the plasma was transferred to new centrifuge tubes and then stored at – 80 °C.
High-performance liquid chromatography (HPLC) with ultraviolet (UV) detection (HPLC Waters 2695 Separations Module with autosampler, Waters 2487 Dual Absorbance Detector) [17] after a liquid–liquid extraction with a mixture of 1-butanol:n-heptane (50:50, v/v) was applied to measure the concentrations of metformin in the rats’ plasma. An analytical Symmetry® C8 column (250 × 4.6 mm, 5.0 μm; Waters Corporation, Milford, MA, USA) and a mobile phase consisting of 0.1 M ammonium formate solution, pH 6.3 with an isocratic flow rate of 1.0 ml/min were used. The volume of each injection was 20 µl, and the retention times for metformin and internal standard (acetaminophen) were 3.5 and 11.2 min, respectively.
The maximum plasma concentration (Cmax) and the time to reach the Cmax (tmax) were obtained directly from the measured values. All of the above-mentioned parameters underwent statistical analysis.

[2] = test system: epithelial ovarian cancer cell lines; conditions: drugs given separately or co-administered; cited from earlier work
[3] = male, Wistar, rat, plasma, 100 mg/kg, IIMET: metformin 100 mg/kg b.w. oral single dose alone
[4] = male, Wistar, rat, plasma, 100 mg/kg, IMET+OLA: metformin 100 mg/kg b.w. + olaparib 100 mg/kg b.w. oral single dose
[5] = metformin, rats, with olaparib / alone
[6] = IIMET: metformin 100 mg/kg b.w. oral single dose alone
[7] = IMET+OLA: metformin 100 mg/kg b.w. + olaparib 100 mg/kg b.w. oral single dose
[8] = rats, co-administered with olaparib vs. metformin alone
[9] = rats, concomitant olaparib and metformin

For `CN(C)C(=N)N=C(N)N` [metformin, Metformin], the concentration at 0.083 h ([1]; male, Wistar, rat, plasma, oral, 100 mg/kg, t 0.083 h, IIMET (metformin alone), group mean, read-out: Cmet, S (group mean)) was 146 ng/mL, the concentration at 1 h ([1]; male, Wistar, rat, plasma, oral, 100 mg/kg, t 1 h, IIMET (metformin alone), group mean, read-out: Cmet, S (group mean)) was 397 ng/mL and the concentration at 2 h ([1]; male, Wistar, rat, plasma, oral, 100 mg/kg, t 2 h, IIMET (metformin alone), group mean, read-out: Cmet, S (group mean)) was 285 ng/mL. It also gave a concentration at 6 h ([1]; male, Wistar, rat, plasma, oral, 100 mg/kg, t 6 h, IIMET (metformin alone), group mean, read-out: Cmet, S (group mean)) of 156 ng/mL, a concentration at 8 h ([1]; male, Wistar, rat, plasma, oral, 100 mg/kg, t 8 h, IIMET (metformin alone), group mean, read-out: Cmet, S (group mean)) of 163 ng/mL and a concentration at 10 h ([1]; male, Wistar, rat, plasma, oral, 100 mg/kg, t 10 h, IIMET (metformin alone), group mean, read-out: Cmet, S (group mean)) of 133 ng/mL. It also gave a concentration at 24 h ([1]; male, Wistar, rat, plasma, oral, 100 mg/kg, t 24 h, IIMET (metformin alone), group mean, read-out: Cmet, S (group mean)) of 112 ng/mL, a concentration at 0.083 h ([1]; male, Wistar, rat, plasma, oral, t 0.083 h, IMET+OLA (metformin and olaparib), group mean, read-out: Cmet, S (group mean)) of 140 ng/mL and a concentration at 0.5 h ([1]; male, Wistar, rat, plasma, oral, t 0.5 h, IMET+OLA (metformin and olaparib), group mean, read-out: Cmet, S (group mean)) of 590 ng/mL. The concentration at 1 h ([1]; male, Wistar, rat, plasma, oral, t 1 h, IMET+OLA (metformin and olaparib), group mean, read-out: Cmet, S (group mean)) was 968 ng/mL, the concentration at 2 h ([1]; male, Wistar, rat, plasma, oral, t 2 h, IMET+OLA (metformin and olaparib), group mean, read-out: Cmet, S (group mean)) was 858 ng/mL and the concentration at 4 h ([1]; male, Wistar, rat, plasma, oral, t 4 h, IMET+OLA (metformin and olaparib), group mean, read-out: Cmet, S (group mean)) was 734 ng/mL. It also gave a concentration at 6 h ([1]; male, Wistar, rat, plasma, oral, t 6 h, IMET+OLA (metformin and olaparib), group mean, read-out: Cmet, S (group mean)) of 626 ng/mL, a concentration at 10 h ([1]; male, Wistar, rat, plasma, oral, t 10 h, IMET+OLA (metformin and olaparib), group mean, read-out: Cmet, S (group mean)) of 334 ng/mL and a concentration at 24 h ([1]; male, Wistar, rat, plasma, oral, t 24 h, IMET+OLA (metformin and olaparib), group mean, read-out: Cmet, S (group mean)) of 182 ng/mL. It also gave a Cmax [1, 3] of 450 ± 290 ng/mL, a k el [1, 3] of 8.89e-06 s⁻¹ and a Cmax [1, 4] of 1250 ± 800 ng/mL. For the same molecule, the k el [1, 4] was 1.5e-05 s⁻¹, the “IMET+OLA/IIMET ratio for AUC0-t” value [1, 5] was 2.59 and the “IMET+OLA/IIMET ratio for AUC0→∞” value [1, 5] was 1.74. The “IMET+OLA/IIMET ratio for Cmax” value [1, 5] was 2.78, the Cl/F [1, 6] was 6.31 ± 1.48 l/h and 6.31 ± 1.48 (23.5) l/h and the ka [1, 6] was 0.41 ± 0.25 (62.4) h^−1. The t0.5 [1, 6] was 26.54 ± 14.52 (54.7) h, the Cl/F [1, 7] was 3.57 ± 1.26 l/h and 3.57 ± 1.26 (35.34) l/h and the ka [1, 7] was 0.59 ± 0.17 (29.7) h^−1. The t0.5 [1, 7] was 14.95 ± 6.04 (40.4) h, the “decrease of metformin Cl/F in the presence of olaparib” value [1, 8] was 43.4% and the “decrease of metformin Vd/F in the presence of olaparib” value [1, 8] was 65.1%. For the same molecule, the “increase of metformin AUC0-t when co-administered with olaparib” value [1, 8] was 159.8%, the “increase of metformin AUC0-∞ when co-administered with olaparib” value [1, 8] was 74.1% and the “increase of metformin Cmax in the presence of olaparib” value [1, 8] was 177.8%. The “increase of metformin AUC on concomitant olaparib” value [1, 9] was 2.6 times, the “increase of metformin Cmax on concomitant olaparib” value [1, 9] was 2.8 times and the Cmet ([1]; t 0.083 h, IIMET (metformin alone), individual rats 17-24) was 0.139 µg/mL and 0.07 µg/mL and 0.274 µg/mL and 0.12 µg/mL and 0.149 µg/mL and 0.135 µg/mL and 0.136 µg/mL and 0.145 µg/mL. The Cmet ([1]; t 0.5 h, IIMET (metformin alone), individual rats 17-24) was 0.153 µg/mL and 0.15 µg/mL and 0.313 µg/mL and 0.434 µg/mL and 0.58 µg/mL and 0.179 µg/mL and 0.143 µg/mL and 0.118 µg/mL, the Cmet ([1]; t 0.5 h, IMET+OLA (metformin and olaparib), individual rats 9-16) was 0.305 µg/mL and 0.586 µg/mL and 0.526 µg/mL and 1.222 µg/mL and 0.663 µg/mL and 0.324 µg/mL and 0.506 µg/mL and the Cmet ([1]; t 1 h, IIMET (metformin alone), individual rats 17-24) was 0.174 µg/mL and 0.18 µg/mL and 1.014 µg/mL and 0.544 µg/mL and 0.499 µg/mL and 0.32 µg/mL and 0.159 µg/mL and 0.287 µg/mL. The Cmet ([1]; t 1 h, IMET+OLA (metformin and olaparib), individual rats 9-16) was 0.543 µg/mL and 0.726 µg/mL and 0.856 µg/mL and 1.358 µg/mL and 0.97 µg/mL and 2.359 µg/mL and 0.185 µg/mL and 0.747 µg/mL, the Cmet ([1]; t 2 h, IIMET (metformin alone), individual rats 17-24) was 0.23 µg/mL and 0.17 µg/mL and 0.418 µg/mL and 0.681 µg/mL and 0.209 µg/mL and 0.126 µg/mL and 0.165 µg/mL and 0.28 µg/mL and the Cmet ([1]; t 2 h, IMET+OLA (metformin and olaparib), individual rats 9-16) was 0.528 µg/mL and 0.55 µg/mL and 1.159 µg/mL and 2.443 µg/mL and 1.095 µg/mL and 0.402 µg/mL and 0.242 µg/mL and 0.446 µg/mL. For the same molecule, the Cmet ([1]; t 4 h, IIMET (metformin alone), individual rats 17-24) was 0.113 µg/mL and 0.13 µg/mL and 0.27 µg/mL and 0.646 µg/mL and 0.162 µg/mL, the Cmet ([1]; t 4 h, IMET+OLA (metformin and olaparib), individual rats 9-16) was 0.578 µg/mL and 0.585 µg/mL and 1.642 µg/mL and 1.111 µg/mL and 0.694 µg/mL and 0.502 µg/mL and 0.361 µg/mL and 0.396 µg/mL and the Cmet ([1]; t 6 h, IMET+OLA (metformin and olaparib), individual rats 9-16) was 0.469 µg/mL and 0.284 µg/mL and 1.584 µg/mL and 1.082 µg/mL and 0.494 µg/mL and 0.321 µg/mL and 0.41 µg/mL and 0.368 µg/mL. The Cmet ([1]; t 8 h, IMET+OLA (metformin and olaparib), individual rats 9-16) was 0.57 µg/mL and 0.234 µg/mL and 1.165 µg/mL and 0.793 µg/mL and 0.485 µg/mL and 0.275 µg/mL and 0.247 µg/mL and 0.287 µg/mL, the Cmet ([1]; t 10 h, IMET+OLA (metformin and olaparib), individual rats 9-16) was 0.281 ug/ml and 0.155 ug/ml and 0.738 ug/ml and 0.33 ug/ml and 0.444 ug/ml and 0.268 ug/ml (2×) and 0.186 ug/ml and the Cmet ([1]; t 24 h, IMET+OLA (metformin and olaparib), individual rats 9-16) was 0.133 µg/mL and 0.13 µg/mL and 0.334 µg/mL and 0.18 µg/mL and 0.236 µg/mL and 0.141 µg/mL and 0.117 µg/mL and 0.187 µg/mL. The “percentage of late apoptotic cells” value [2] was 8.2%.
